Where two headings read alike, the source gives them in different places.

Data set [1] concerns the target T1, N-type Ca2+ channels in IMR-32 cells (Homo sapiens, UniProt Q00975).
T1 construct: host or cells: IMR-32 cells, differentiated with dibutyryl cAMP and bromodeoxyuridine
Briefly: Inhibition of N-type calcium flux in IMR-32 cells (Indo-1 fluorescence, nitrendipine present). In kind it is cell-based. The note with it: for IC50: IMR-32 cells, 5 μM nitrendipine, K+ depolarization; for inhibition at 1 µM / inhibition at 10 µM: IMR-32. Summed up:
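With L-type flux blocked by 5 μM nitrendipine, N-type Ca2+ entry was read as the Indo-1 emission ratio (400/490 nm, excitation 350 nm) at 30° C after KCl depolarization.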

The subject of a further data set is DBA/2 mice. Briefly: animal or person. The data set is classed as in vivo. The note with it: for responders at 30 mg/kg: Mus musculus, iv, read-out: Number of Mice Protected from Tonic Convulsions. Here is the method:
Audiogenic Seizure Model in DBA/2 Mice
In Vivo Biological Protocol
A compound of the present invention was dissolved in water using 10% (weight/volume) Emulphor (GAF Cop., Wayne N.J. surfactant. Substances were administered by intravenous injection the retro-orbital venous sinus. […] All the male mice, 3-4 weeks old were obtained from Jackson Laboratories Bar Harbour, Me. Immediately before anticonvulsant testing, mice were placed upon a wire mesh, 4 inches square suspended from a steel rod. The square was slowly inverted through 180 degree and mice observed for 30 seconds. Any mouse falling from the wire mesh was scored as ataxia.
Mice were placed into an enclosed acrylic plastic chamber (21 cm in height, approximately 30 cm diameter) with a high-frequency speaker (4 cm diameter) in the center of the top lid. An audio signal generator (Protek model B-810) was used to produce a continuous sinusoidal tone that was swept linearly in frequency between 8 kHz and 16 kHz once each 10 msec. The average sound pressure level (SPL) during stimulation was approximately 100 dB at the floor of the chamber. Mice were placed within the chamber and allowed to acclimatize for 1 minute. DBA/2 mice in the vehicle-treated group responded to the sound stimulus (applied until tonic extension occurred, or for a maximum of 60 sec) with a characteristic seizure sequence consisting of wild running followed by clonic seizures, and later by tonic extension, and finally by respiratory arrest and death in 80% or more of the mice. In vehicle-treated mice, the entire sequence of seizures to respiratory arrest lasts approximately 15-20 seconds.
The incidence of all the seizure phases in the drug-treated and vehicle-treated mice was recorded, and the occurrence of tonic seizures were used for calculating anticonvulsant ED50 values by probit analysis. Mice were used only once for testing at each time and dose point.

The subject of data set [2] is K+ channels in superior cervical ganglion (SCG) neurons. The data set can be described thus: Whole-cell voltage clamp, K+ current in SCG neurons. The data set is classed as cell-based, rat. The settings on record: 10 μM. A digest of the protocol:
(§1)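 Percent inhibition of control amplitude at steady-state block is the read-out: peak inward Na+ current at 0 mV, sustained K+ current at +50 mV, 35 msec steps every 10 sec from −65 to −55 mV. Recordings used whole-cell clamp of trypsin-dissociated SCG neurons, pH 7.4 external and pipette solutions, compounds applied by local perfusion.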

For data set [3], the system named is Na+ channels in superior cervical ganglion (SCG) neurons. The data set can be described thus: Whole-cell voltage clamp, Na+ current in SCG neurons. The data set is classed as cell-based, rat. The note with it: 10 μM. Summed up: as §1
Data set [4] addresses T2, L-type Ca2+ channels in A10 cells (Rattus norvegicus, UniProt P22002).
T2 construct: which endogenously expresses L-type calcium channels; host or cells: A10 rat aortic smooth muscle cells
Briefly: Inhibition of L-type calcium flux in A10 cells (FLIPR). In kind it is cell-based. As for the experimental part: Measurement of L-type Ca^2+ Channel Blocking Potencies of Compounds in A10 cells
Calcium flux through voltage-sensitive calcium channels was assessed by time-resolved monitoring of the fluorescence of pre-loaded calcium-sensitive dyes using FLIPR, a fluorescent image plate reader (Molecular Devices Co.). The A10 smooth muscle cell line derived from embryonic thoracic aorta of the DBIX rat (ATCC, CRL-1476) which endogenously expresses L-type calcium channels. The growth media for A10 cells was Ham's F12/DME high glucose (Irvine Scientific, 9052), supplemented with 20% fetal bovine serum (HyClone Labs, A-1115-L), and 1% each of L-glutamine and antibiotic-antimycotic (same source as above).
Cells were grown to confluency and replated on black-sided 96-well plates (Costar, 3603) for use in FLIPR. Two days after replating, growth media was removed and cells were loaded at 37° C. with 100 μL media containing 1 μM Oregon Green 488 Bapta-1 dye (Molecular Probes, O-6807) for 1 to 3 hours. The dye-containing media was then washed away with buffer (composition in mM: 1.25 CaCl2, 1.2 MgSO4, 11 glucose, 10 HEPES, 3.0 KCl, 137.0 NaCl, pH 7.4 with Tris base) in a Denley Cellwash (Labsystems, CW018B). The residual buffer volume was adjusted to 50 μL. A 5 minute drug-pre-incubation period at 35° C. was initiated when 50 μL of drug-containing buffer was pipetted into the cell plate with the 96-well pipettor integrated in the FLIPR apparatus. Fluorescent counts were monitored at 20 second intervals for 360 seconds, beginning 60 seconds prior to the delivery of drug-containing buffer. Following drug addition, 100 μL aliquots of a high K^+, depolarizing stimulus (composition in mM: 1.25 CaCl2, 1.2 MgSO4, 11 glucose, 10 HEPES, 140.0 KCl, pH 7.4 with Tris base) were added to each well and fluorescence was monitored at 1 second intervals for 120 seconds, beginning 10 seconds prior to the stimulus addition. CCD camera exposure time was 0.4 seconds, laser excitation was at 488 nm with a power of 0.2-0.5W, and a 510 to 560 nm bandpass interference filter preceded the camera.
Data was analyzed as a summation of fluorescent counts above basal during the stimulation period (an approximation of area under the curve), after normalizing the data with a spatial uniformity correction (for variations in laser illumination and cell density) and a negative control correction (zero calcium increase defined as the fluorescence reading in the presence of saturating pharmacologic block of the respective calcium channel). Drug effects were expressed as percent inhibition of fluorescence from an average of 8 K^+-stimulated wells which were pre-treated in the drug incubation period with buffer only.
In the A10 cells, the pharmacologic agent used to define zero calcium influx was nitrendipine (RBI, N-144), at a final concentration of 1.0×10^−6 M.

[5] abbreviates: 30 mg/Kg iv, 15 min post treatment.
Where [6] appears, read: 30 mg/Kg iv, 45 min post treatment.

T2 sequence (P22002 whole entry): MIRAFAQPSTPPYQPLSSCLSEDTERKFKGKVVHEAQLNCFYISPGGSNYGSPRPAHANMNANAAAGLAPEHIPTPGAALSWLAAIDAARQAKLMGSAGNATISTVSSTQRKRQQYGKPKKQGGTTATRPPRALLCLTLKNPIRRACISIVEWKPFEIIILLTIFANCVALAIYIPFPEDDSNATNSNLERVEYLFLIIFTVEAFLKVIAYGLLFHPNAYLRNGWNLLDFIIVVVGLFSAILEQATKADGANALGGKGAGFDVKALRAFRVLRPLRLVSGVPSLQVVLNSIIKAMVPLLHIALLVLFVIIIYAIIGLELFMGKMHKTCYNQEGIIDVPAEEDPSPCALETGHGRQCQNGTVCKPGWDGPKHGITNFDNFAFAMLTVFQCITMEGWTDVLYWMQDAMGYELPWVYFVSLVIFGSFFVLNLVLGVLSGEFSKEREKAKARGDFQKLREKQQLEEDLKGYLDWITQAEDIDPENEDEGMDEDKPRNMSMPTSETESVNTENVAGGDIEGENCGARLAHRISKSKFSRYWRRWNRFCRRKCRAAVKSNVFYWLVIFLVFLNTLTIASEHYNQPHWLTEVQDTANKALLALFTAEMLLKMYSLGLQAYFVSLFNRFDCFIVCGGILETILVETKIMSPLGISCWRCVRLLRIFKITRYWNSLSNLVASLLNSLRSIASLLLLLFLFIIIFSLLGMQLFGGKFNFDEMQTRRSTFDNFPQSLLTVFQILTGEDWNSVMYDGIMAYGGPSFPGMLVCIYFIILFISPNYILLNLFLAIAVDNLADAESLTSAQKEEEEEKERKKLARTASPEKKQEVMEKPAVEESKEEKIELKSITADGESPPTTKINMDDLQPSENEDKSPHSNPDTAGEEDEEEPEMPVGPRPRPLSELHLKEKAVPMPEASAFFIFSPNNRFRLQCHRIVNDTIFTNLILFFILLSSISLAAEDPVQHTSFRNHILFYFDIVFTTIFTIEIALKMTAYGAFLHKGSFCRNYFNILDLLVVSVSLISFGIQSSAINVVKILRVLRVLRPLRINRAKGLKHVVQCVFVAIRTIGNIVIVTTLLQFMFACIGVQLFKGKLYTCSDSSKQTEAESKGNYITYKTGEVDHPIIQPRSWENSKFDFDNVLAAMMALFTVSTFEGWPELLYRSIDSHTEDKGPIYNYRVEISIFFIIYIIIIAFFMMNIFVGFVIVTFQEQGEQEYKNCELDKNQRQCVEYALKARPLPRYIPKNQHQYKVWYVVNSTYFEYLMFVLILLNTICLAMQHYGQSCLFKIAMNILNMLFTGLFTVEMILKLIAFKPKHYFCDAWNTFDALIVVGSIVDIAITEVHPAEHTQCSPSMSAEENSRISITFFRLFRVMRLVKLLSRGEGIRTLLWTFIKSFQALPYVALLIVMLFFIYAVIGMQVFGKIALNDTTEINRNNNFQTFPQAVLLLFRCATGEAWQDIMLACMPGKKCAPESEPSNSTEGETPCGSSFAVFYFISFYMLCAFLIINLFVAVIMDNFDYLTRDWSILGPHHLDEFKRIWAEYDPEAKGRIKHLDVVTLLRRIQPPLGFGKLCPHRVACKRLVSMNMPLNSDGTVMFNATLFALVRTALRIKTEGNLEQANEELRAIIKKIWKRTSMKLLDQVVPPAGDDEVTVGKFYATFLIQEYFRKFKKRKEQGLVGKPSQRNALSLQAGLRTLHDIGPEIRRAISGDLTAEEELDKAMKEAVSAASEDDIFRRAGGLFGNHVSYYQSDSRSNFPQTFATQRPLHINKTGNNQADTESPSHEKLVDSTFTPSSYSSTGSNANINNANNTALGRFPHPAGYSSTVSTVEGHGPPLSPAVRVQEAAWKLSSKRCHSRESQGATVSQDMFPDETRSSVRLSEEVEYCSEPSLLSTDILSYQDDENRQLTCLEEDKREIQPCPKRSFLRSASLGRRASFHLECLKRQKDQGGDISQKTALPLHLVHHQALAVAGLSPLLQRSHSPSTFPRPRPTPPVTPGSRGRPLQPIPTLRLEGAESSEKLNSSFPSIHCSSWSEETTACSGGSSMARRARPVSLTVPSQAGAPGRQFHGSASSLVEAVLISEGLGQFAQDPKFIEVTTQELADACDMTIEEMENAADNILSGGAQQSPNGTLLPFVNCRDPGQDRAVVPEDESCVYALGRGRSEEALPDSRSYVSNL
T2 sequence (P54290 25-944 partner limits assumed): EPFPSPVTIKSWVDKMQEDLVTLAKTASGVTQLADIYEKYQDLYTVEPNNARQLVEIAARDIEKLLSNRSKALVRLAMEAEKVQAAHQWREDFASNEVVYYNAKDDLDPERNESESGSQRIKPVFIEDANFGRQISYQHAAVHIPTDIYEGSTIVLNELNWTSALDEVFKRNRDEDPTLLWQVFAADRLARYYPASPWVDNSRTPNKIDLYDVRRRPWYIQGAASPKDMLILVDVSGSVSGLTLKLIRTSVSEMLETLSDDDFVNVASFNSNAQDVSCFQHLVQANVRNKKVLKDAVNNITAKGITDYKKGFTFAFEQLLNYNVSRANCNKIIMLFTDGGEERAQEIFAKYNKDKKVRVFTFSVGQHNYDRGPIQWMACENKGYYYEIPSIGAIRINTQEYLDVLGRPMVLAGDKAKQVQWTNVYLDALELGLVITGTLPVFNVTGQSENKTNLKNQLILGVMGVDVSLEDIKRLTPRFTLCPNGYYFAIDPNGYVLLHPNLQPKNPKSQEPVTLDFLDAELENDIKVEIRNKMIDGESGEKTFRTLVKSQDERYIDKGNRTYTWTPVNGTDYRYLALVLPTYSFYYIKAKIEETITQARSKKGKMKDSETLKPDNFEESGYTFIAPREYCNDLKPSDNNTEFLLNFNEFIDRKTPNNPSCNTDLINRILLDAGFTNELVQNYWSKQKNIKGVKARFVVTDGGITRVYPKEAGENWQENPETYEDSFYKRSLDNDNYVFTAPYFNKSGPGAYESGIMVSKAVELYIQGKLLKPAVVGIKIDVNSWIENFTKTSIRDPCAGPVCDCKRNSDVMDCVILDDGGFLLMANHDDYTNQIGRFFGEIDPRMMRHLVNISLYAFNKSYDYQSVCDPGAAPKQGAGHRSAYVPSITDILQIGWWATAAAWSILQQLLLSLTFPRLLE
T2 sequence (P54290 945-1091 partner limits assumed): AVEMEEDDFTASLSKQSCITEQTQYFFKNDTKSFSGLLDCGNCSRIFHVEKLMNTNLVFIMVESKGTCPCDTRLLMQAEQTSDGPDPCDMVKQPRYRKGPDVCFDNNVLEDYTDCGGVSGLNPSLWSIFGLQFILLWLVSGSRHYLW
T2 sequence (P54287 whole entry partner): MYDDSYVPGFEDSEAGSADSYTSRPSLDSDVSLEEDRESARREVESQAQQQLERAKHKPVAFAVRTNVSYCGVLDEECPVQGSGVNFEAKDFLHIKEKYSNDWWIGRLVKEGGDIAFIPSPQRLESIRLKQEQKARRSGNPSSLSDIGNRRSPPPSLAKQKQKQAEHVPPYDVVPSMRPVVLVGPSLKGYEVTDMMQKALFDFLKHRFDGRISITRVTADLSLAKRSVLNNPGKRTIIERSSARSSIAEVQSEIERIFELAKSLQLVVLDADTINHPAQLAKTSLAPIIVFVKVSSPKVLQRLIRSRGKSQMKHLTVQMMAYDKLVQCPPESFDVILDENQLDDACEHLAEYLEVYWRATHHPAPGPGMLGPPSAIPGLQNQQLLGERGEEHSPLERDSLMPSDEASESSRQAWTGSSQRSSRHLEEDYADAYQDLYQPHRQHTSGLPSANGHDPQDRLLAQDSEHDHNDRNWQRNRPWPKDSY

Take `CC(C)C[C@H](NC(=S)Nc1ccc(C(C)(C)C)cc1)C(=O)N[C@@H](Cc1ccc(OCc2ccccc2)cc1)C(=O)OC(C)(C)C` (relative stereo) [Example 44, [S-(R*,R*)]-3-(4-Benzyloxy-phenyl)-2-{2-[3-(4-tert-butyl-phenyl)-thioureido]-4-methyl-pentanoylamino}-propionic acid, tert-butyl ester]: in data set [1], the “Inhibition of Calcium Flux in IMR-32 Cells % Inhibition at 1 μM” value is recorded as 28% and the “Inhibition of Calcium Flux in IMR-32 Cells % Inhibition at 10 μM” value came out at 71%. In addition, the “Number of Mice Protected from Tonic Convulsions” value (from here on “Number of Mice Protected”) in the data set with DBA/2 mice (setting [5]) is on record as 0/5.
With `CC(C)C[C@H](NC(=O)N1CCCCCC1)C(=O)N[C@@H](Cc1ccc(OCc2ccccc2)cc1)C(=O)NC(CO)CO` (relative stereo) [Example 257, [S-(R*,R*)]-Azepane-1-carboxylic acid {1-[2-(4-benzyloxy-phenyl)-1-(2-hydroxy-1-hydroxymethyl-ethylcarbamoyl)-ethylcarbamoyl]-3-methyl-butyl}-amide], in data set [1], the “Inhibition of Calcium Flux in IMR-32 Cells % Inhibition at 1 μM” value was determined as 42%, the “Inhibition of Calcium Flux in IMR-32 Cells % Inhibition at 10 μM” value amounted to 90% and the half-maximal inhibitory concentration (IC50) is 1.4 µM. The “Inhibition of K+ Current, % Inhibition at 10 μM” value in data set [2] was 43%. Also, in data set [3], the “Inhibition of Na+ Current, % Inhibition at 10 μM” value turned out to be 5%. Moreover, in the data set with DBA/2 mice (setting [5]), the “Dead mice (remark beside the protection count)” value (shortened to “Dead mice”) was “(1 dead)” and the “Number of Mice Protected” value is listed as 3/4. In the data set with DBA/2 mice (setting [6]), the “Dead mice” value is 2 (dead) and the “Number of Mice Protected” value is 3/3.
For `CC(C)C[C@H](NC(=O)N1CCCCCC1)C(=O)N[C@@H](Cc1ccc(OCc2ccccc2)cc1)C(=O)NC1CCN(Cc2ccccc2)C1` (stereo in doubt) [Example 183, Azepane-1-carboxylic acid {(S)-1-[(S)-2-(4-benzyloxy-phenyl)-1-[1-benzyl-(S)-pyrrolidin-3-ylcarbamoyl]-ethylcarbamoyl]-3-methyl-butyl}-amide], the IC50 in data set [1] amounted to 0.3 µM; in data set [4], 0.22 µM. In the data set with DBA/2 mice (0.25 h), the responders at 30 mg/kg is 100%. For the same compound, in the data set with DBA/2 mice (mouse, in vivo), the “Dead mice” value is listed as “dead”.
With `CC(C)C[C@H](NS(=O)(=O)c1ccc(C(C)(C)C)cc1)C(=O)N[C@@H](Cc1ccc(OCc2ccccc2)cc1)C(=O)OC(C)(C)C` [Example 36, [S-(R*,R*)]-3-(4-Benzyloxy-phenyl)-2(S)-[2(S)-(4-tert-butyl-benzenesulfonylamino)-4-methyl-pentanoylamino]-propionic acid tert-butyl ester], the melting point lay within 142 to 143 °C. Moreover, in data set [1], the inhibition at 1 µM turned out to be 71%, the inhibition at 10 µM amounted to 86% and the IC50 is 0.17 µM. The IC50 in data set [4] came out at 3 µM. Also, the “Inhibition of K+ Current, % Inhibition at 10 μM” value in data set [2] was 92%. Moreover, in data set [3], the “Inhibition of Na+ Current, % Inhibition at 10 μM” value was 91%.
The compound `CC(C)C[C@H](NC(=O)N1CCCCCC1)C(=O)N[C@@H](Cc1ccc(CCC2(O)CCCCC2)cc1)C(=O)NC(C)(C)C` [Example 148, [S-(R*,R*)]-Azepane-1-carboxylic acid [1-(1-tert-butylcarbamoyl-2-{4-[2-(1-hydroxy-cyclohexyl)-ethyl]-phenyl}-ethylcarbamoyl)-3-methyl-butyl]-amide] showed a melting point of 101 to 102 °C. In addition, in data set [1], the inhibition at 1 µM stood at 30% and the inhibition at 10 µM was determined as 68%. Moreover, the IC50 in data set [4] was determined as 0.97 µM.
With `CC(C)C[C@H](NC(=O)N1CCCCCC1)C(=O)N[C@@H](Cc1ccc(OCc2ccccc2)cc1)C(=O)NCCN1CCCCC1` [Example 171, [S-(R*,R*)]-Azepane-1-carboxylic acid {1-[2-(4-benzyloxy-phenyl)-1-(2-piperidin-1-yl-ethylcarbamoyl)-ethylcarbamoyl]-3-methyl-butyl}-amide], in data set [1], the inhibition at 1 µM was 62% and the IC50 stood at 0.46 µM. Moreover, in data set [4], the concentration for half-maximal inhibition (IC50) was 0.27 µM. For the same compound, the responders at 30 mg/kg with DBA/2 mice (0.75 h) was 0%.
On to `CC(C)C[C@H](NC(=O)N1CCCCCC1)C(=O)N[C@@H](Cc1ccc(OCc2ccccc2)cc1)C(=O)N1CCSCC1` [Example 221, [S-(R*,R*)]-Azepane-1-carboxylic acid {1-[1-(4-benzyloxy-benzyl)-2-thiomorpholin-4-yl-2-oxo-ethylcarbamoyl]-3-methyl-butyl}-amide], for which, in data set [1], the inhibition at 1 µM was determined as 65% and the inhibition at 10 µM was determined as 93%. Further, the IC50 in data set [4] came to 0.6 µM. Besides, the responders at 30 mg/kg in the data set with DBA/2 mice (0.25 h) is 20%. In the data set with DBA/2 mice (0.75 h), the responders at 30 mg/kg was found to be 0%.
For the compound `CC(C)C[C@H](NC(=O)N1CCCCCC1)C(=O)N[C@@H](Cc1ccc(OCc2ccccc2)cc1)C(=O)NCCc1ccccn1` [Example 231], in data set [1], the inhibition at 1 µM is 55%, the inhibition at 10 µM came out at 95% and the IC50 came out at 1.11 µM. Further, in data set [4], the IC50 came to 0.67 µM. For the same compound, the responders at 30 mg/kg with DBA/2 mice (0.25 h) was found to be 0%.
`CC(C)CC(NC(=O)N1CCCCCC1)C(=O)NC(Cc1ccc(OCc2ccccc2)cc1)C(=O)NC(CO)C(C)C` (centres unmarked) [Example 253, Azepane-1-carboxylic acid {1-[2-(4-benzyloxy-phenyl)-1-(1-hydroxymethyl-2-methyl-propylcarbamoyl)-ethylcarbamoyl]-3-methyl-butyl}-amide]: in data set [1], the inhibition at 1 µM came to 60%, the inhibition at 10 µM was determined as 93% and the IC50 stood at 1.1 µM. The “Inhibition of K+ Current, % Inhibition at 10 μM” value in data set [2] was 62%. For the same compound, the “Inhibition of Na+ Current, % Inhibition at 10 μM” value in data set [3] came to 5%. Moreover, in the data set with DBA/2 mice (0.25 h), the responders at 30 mg/kg amounted to 0%.

For the origin of these results see patent US6423689B1, “Peptidyl calcium channel blockers” (Warner-Lambert Company, priority 1997, dated 2002).
